{"source": "paper PMC12138161", "about": "“Structure–activity analysis of imino‐pyrimidinone‐fused pyrrolidines aids the development of dual plasmepsin V and plasmepsin X inhibitors” (The Febs Journal, 2025)", "origin": "cited, not measured here", "key": {"PMX": {"tested_on": "PMX", "conditions": "cited from earlier work"}, "[1]": {"tested_on": "3D7 strain of Plasmodium falciparum", "conditions": "blood stage growth, read-out: Pf 3D7 EC50; cited from earlier work"}, "PMV": {"tested_on": "PMV", "conditions": "cited from earlier work"}, "PMIX": {"tested_on": "PMIX", "conditions": "cited from earlier work"}}, "note": "Read-outs that look alike come from different tables or passages of the source.", "data": [{"smiles": "CC(C)C[C@H](NC(=O)[C@@H](NC(=O)[C@H](CCONC(=N)N)NC(=O)OCc1ccccc1)C(C)C)[C@@H](O)CC(=O)NCCc1ccccc1", "note": "[WEHI-842 (1)]", "values": [{"measurement": "IC50", "setting": "PMX", "result": 1700, "unit": "nM"}, {"measurement": "EC50", "setting": "[1]", "result": 430, "unit": "nM"}, {"measurement": "IC50", "setting": "PMV", "result": 19, "unit": "nM"}, {"measurement": "IC50", "setting": "PMV; stated in text with reference to Fig. 1", "result": "< 20", "unit": "nM"}, {"measurement": "IC50", "setting": "PMIX", "result": "> 50000", "unit": "nM"}]}, {"smiles": "CCC1(CC)CC(=O)N([C@@H]2CCOc3ccc(C(=O)N[C@H]4CC(C)(C)Oc5ccccc54)cc32)C(=N)N1", "note": "[WM382 (5)]", "values": [{"measurement": "IC50", "setting": "PMX", "result": 0.04, "unit": "nM"}, {"measurement": "EC50", "setting": "[1]", "result": 0.6, "unit": "nM"}, {"measurement": "IC50", "setting": "PMV", "result": "> 1000", "unit": "nM"}, {"measurement": "IC50", "setting": "PMIX", "result": 0.4, "unit": "nM"}]}]}
